Counter-ions that a name gives are not always drawn.
Columns and labels:
ACHN = assay: Cytotoxicity against human ACHN cells assessed as cell growth inhibition incubated for 48 hrs by SRB method; type: functional, cell-based
NCI-H23 = assay: Cytotoxicity against human NCI-H23 cells assessed as cell growth inhibition incubated for 48 hrs by SRB method; type: functional, cell-based; settings: NCI-H23, 48 h
PC-3 = assay: Cytotoxicity against human PC-3 cells assessed as cell growth inhibition incubated for 48 hrs by SRB method; type: functional, cell-based; settings: PC-3, 48 h
NUGC-3 = assay: Cytotoxicity against human NUGC-3 cells assessed as cell growth inhibition incubated for 48 hrs by SRB method; type: functional, cell-based; settings: NUGC-3, 48 h
MDA-MB-231 = assay: Cytotoxicity against human MDA-MB-231 cells assessed as cell growth inhibition incubated for 48 hrs by SRB method; type: functional, cell-based; settings: MDA-MB-231, 48 h
HCT-15 = assay: Cytotoxicity against human HCT-15 cells assessed as cell growth inhibition incubated for 48 hrs by SRB method; type: functional, cell-based; settings: HCT-15, 48 h
BV-2 [1] = assay: Anti-neuroinflammatory activity in mouse BV-2 cells assessed as inhibition of LPS-induced NO production pretreated for 1 hr followed by LPS addition measured after 24 hrs by Griess reagent based assay; type: functional, cell-based
BV-2 [2] = assay: Cytotoxicity against LPS induced mouse BV-2 cells assessed as reduction in cell viability at >1 uM pretreated for 1 hr followed by LPS addition measured after 24 hrs by MTT assay; type: toxicity, cell-based; settings: bv-2, 25 h

| SMILES | IC50 (ACHN) [µM] | IC50 (NCI-H23) [µM] | IC50 (PC-3) [µM] | IC50 (NUGC-3) [µM] | IC50 (MDA-MB-231) [µM] | IC50 (HCT-15) [µM] | IC50 (BV-2 [1]) [µM] | Activity (BV-2 [2]) |
| --- | --- | --- | --- | --- | --- | --- | --- | --- |
| C[C@@H](c1cc(C(=O)O)c2nc3cccc([C@@H](C)O)c3nc2c1)c1cccc2nc3c(C(=O)O)cccc3nc12 | > 10 | > 10 | > 10 | > 10 | > 10 | > 10 |  |  |
| CC(=O)c1cccc2nc3c(C(=O)O[C@H](C)c4cccc5nc6c(C(=O)O)cccc6nc45)cccc3nc12 | 0.072 | 0.043 | 0.047 | 0.035 | 0.052 | 0.06 |  |  |
| C[C@H](c1cc([C@@H](C)O)c2nc3cccc(C(=O)O)c3nc2c1)c1cccc2nc3c(C(=O)O)cccc3nc12 | > 10 | > 10 | > 10 | > 10 | > 10 | > 10 |  |  |
| C[C@@H](OC(=O)c1ccccc1N)c1cccc2nc3c(C(=O)O)cccc3nc12 | > 10 | > 10 | > 10 | > 10 | > 10 | > 10 |  |  |
| COc1cccc2c1C(=O)c1c(O)c3c(c(O)c1C2=O)C[C@@](O)(C(=O)CO)C[C@@H]3O[C@H]1C[C@H](N)[C@H](O)[C@H](C)O1 [DOXORUBICIN HYDROCHLORIDE] | 0.17 | 0.16 |  | 0.15 | 0.15 | 0.17 |  |  |
| C[C@@H](c1cccc2nc3c(C(=O)O)cccc3nc12)c1ccc(C(=O)O)c2nc3cccc([C@@H](C)O)c3nc12 | > 10 | > 10 | > 10 | > 10 | > 10 | > 10 | 90 |  |
| CC(=O)c1cccc2nc3c(C(=O)O)ccc([C@H](C)c4cccc5nc6c(C(=O)O)cccc6nc45)c3nc12 | > 10 | > 10 | > 10 | > 10 | > 10 | > 10 | 35 |  |
| C[C@@H](O)c1cccc2nc3c(C(=O)O)cccc3nc12 | > 10 | > 10 | > 10 | > 10 | > 10 | > 10 | 16 |  |
| C[C@H](c1cccc2nc3c(C(=O)O)cccc3nc12)c1ccc(C(=O)O)c2nc3cccc([C@@H](C)O)c3nc12 | > 10 | > 10 | > 10 | > 10 | > 10 | > 10 | 170 |  |
| C[C@@H](O)c1cccc2nc3c(C(=O)O[C@H](C)c4cccc5nc6c(C(=O)O)cccc6nc45)cccc3nc12 | 0.014 | 0.01 | 0.01 | 0.0077 | 0.01 | 0.01 | 0.3 | Toxic |

Reference: ChEMBL document CHEMBL5143633, “Isolation, Structure Determination, and Semisynthesis of Diphenazine Compounds from a Deep-Sea-Derived Strain of the Fungus Cystobasidium laryngis and Their Biological Activities” (J Nat Prod, 2022)
